Test results reported in ChEMBL document CHEMBL1153897, “Small molecules with potent osteogenic-inducing activity in osteoblast cells” (Bioorg Med Chem Lett, 2009).
Activity calls are given as the source filed them. The rule behind the calls is not given here.

Tests used:
[1] = Cytotoxicity against mouse MC3T3-E1 cells assessed as increase in apoptosis treated for 3 hrs measured after 22 hrs by caspase 3 colorimetric assay; type: cell-based
MC3T3-E1 [2] = assay: Induction of osteogenesis in mouse MC3T3-E1 cells assessed as calcium level at 25 uM after 3 weeks; type: functional, cell-based; details: MC3T3-E1, 504 h
MC3T3-E1 [3] = assay: Induction of osteogenesis in mouse MC3T3-E1 cells assessed as alkaline phosphatase secretion at 25 uM after 3 weeks by ELISA; type: functional, cell-based; details: MC3T3-E1, 504 h
MC3T3-E1 [4] = assay: Inhibition of staurosporine-induced apoptosis in mouse MC3T3-E1 cells by caspase 3 colorimetric assay; type: functional, cell-based
[5] = Cytotoxicity against mouse MC3T3-E1 cells after 4 hrs by fluorescent Alamar blue assay; type: cell-based; details: mc3t3-e1, 4 h
MC3T3-E1 [6] = assay: Induction of osteogenesis in mouse MC3T3-E1 cells assessed as osteocalcin secretion at 25 uM after 3 weeks; type: functional, cell-based; details: MC3T3-E1, 504 h
[7] = Antiproliferative activity against mouse MC3T3-E1 cells after 24 hrs by BrdU incorporation assay; type: cell-based; details: mc3t3-e1, 24 h

Row | Compound | Activity [1] | EC50 (MC3T3-E1 [2]) [µM] | EC50 (MC3T3-E1 [3]) [µM] | Activity (MC3T3-E1 [4]) | Activity [5] | EC50 (MC3T3-E1 [6]) [µM] | Activity [7]
1 | CN[C@@H]1C[C@H]2O[C@@](C)([C@@H]1OC)n1c3ccccc3c3c4c(c5c6ccccc6n2c5c31)C(=O)NC4 [STAUROSPORINE] | Non-toxic | – | – | – | – | – | –
2 | COc1cc2nccc(Oc3ccc4c(C(=O)Nc5ccc(C)cc5)cccc4c3)c2cc1OC | – | 0.05 | 0.09 | inactive | Non-toxic | 0.03 | Dose-dependent effect
3 | COc1cc2nccc(Oc3ccc4c(NC(=O)c5ccc(C)cc5)cccc4c3)c2cc1OC | – | 0.15 | 0.12 | – | – | 0.1 | –
